The record followed here is patent US12590095B2, “Crystalline forms of an orally available, selective kit and PDGFR kinase inhibitor” (Sandoz AG, priority 2019, dated 2026).

Common to all, as to assay type: physicochemical
The nature of series [1]: Gravimetric moisture sorption (GMS). The note with it: for mass change during the sorption cycle: GMS, (25±0.1)° C.; for solid form by powder X-ray diffraction after the GMS experiment: after full sorption/desorption cycle 0-90% RH; for hygroscopicity: judged from GMS mass change. How it is done: Moisture sorption isotherms were recorded along with other samples with an SPSx-1μ moisture sorption analyzer (ProUmid, Ulm). The measurement cycle was started at ambient relative humidity (RH) of 25% (Form A) or 40% (Form B and Form Hy1). Relative humidity was then decreased to 5% in 5% steps, followed by a further decrease to 3% and to 0%. Afterwards RH was increased from 0% to 90% in a sorption cycle and decreased to 0% in a desorption cycle in 5% steps. Finally, the RH was increased to a relative humidity of 25% (Form A) or 40% (Form B and Form Hy1) in 5% steps. The time per step was set to a minimum of 2 hours and a maximum of 6 hours. If an equilibrium condition with a constant mass of +0.01% within 1 hour was reached before the maximum time for all examined samples the sequential humidity step was applied before the maximum time of 6 hours. If no equilibrium was achieved the consecutive humidity step was applied after the maximum time of 6 hours. The temperature was (25±0.1)° C.

Series [2] is described as follows: Slurry experiments in aqueous isopropanol, form checked by PXRD. Conditions: for form found by PXRD after slurry: aqueous isopropanol 3:1, 0° C. The protocol:
Form A and Form B of avapritinib were each slurried in aqueous isopropanol [4 mL, 3:1 (volume:volume)] at 0° C., 20° C. and 40° C., respectively. Samples were taken after 1 and 5 days and investigated by powder-X-ray diffraction.

Series [3] can be described thus: Thermogravimetric analysis (TGA). The note with it: for TGA mass loss: 10 K/min. The protocol:
TGA was performed on a Mettler TGA/DSC 1 instrument. The samples (8.29 mg Form A, 8.11 mg Form B, 4.12 mg Form Hy1) were each weighed into a 100 microliter aluminum pan closed with an aluminum lid. The lid was automatically pierced at the beginning of the measurement. The samples were each heated from 25 to 250° C. at a rate of 10 K/min. Nitrogen (purge rate 50 mL/min) was used as purge gas.

Series [4] can be described thus: Storage stability under various stress conditions, form checked by PXRD. Conditions: 6 months. From the text: Avapritinib Form A, Form B and hydrate Form Hy1 were each subjected to the various stress conditions listed in Table 8 for 6 months and the samples were investigated by powder X-ray diffraction.

Molecules are shown by their SMILES.

In the case of `Cn1cc(-c2cc3c(N4CCN(c5ncc([C@@](C)(N)c6ccc(F)cc6)cn5)CC4)ncnn3c2)cn1` [Form A, (1S)-1-(4-fluorophenyl)-1-(2-[4-[6-(1-methyl-1H-pyrazol-4-yl)pyrrolo[2,1-f][1,2,4]triazin-4-yl]piperazin-1-yl]pyrimidin-5-yl)ethan-1-amine], the “mass change during the sorption cycle” value in series [1] (0-90% RH) was “about 0.1 weight %”. In addition, in series [1], the “solid form by powder X-ray diffraction after the GMS experiment” value (shortened to “solid form by powder X-ray diffraction”) is on record as “Form A” and the hygroscopicity entry is “non-hygroscopic”. For the same compound, in series [2] (all applied conditions (0, 20, 40° C.; 1 and 5 days)), the “stability in slurry experiments” value is “remained stable”. Further, in series [2] (from slurry experiments and DSC at 1 K/min), the “thermodynamic relationship of Form A and Form B” value is “the stable form below its melting point”. Further, the TGA mass loss result in series [3] (up to about 190° C.) is recorded as “about 0.3 weight %”.
As to `Cn1cc(-c2cc3c(N4CCN(c5ncc([C@@](C)(N)c6ccc(F)cc6)cn5)CC4)ncnn3c2)cn1` [Form B, (1S)-1-(4-fluorophenyl)-1-(2-[4-[6-(1-methyl-1H-pyrazol-4-yl)pyrrolo[2,1-f][1,2,4]triazin-4-yl]piperazin-1-yl]pyrimidin-5-yl)ethan-1-amine], the “mass change during the sorption cycle” value in series [1] (0-90% RH) is reported as “about 0.3 weight %”. For the same compound, the “solid form by powder X-ray diffraction” value in series [1] is “Form B”. Moreover, the hygroscopicity result in series [1] is “only slightly hygroscopic”. The “conversion in slurry experiments” value in series [2] (0° C.) is “partially converted to Form A”; in series [2] (20° C. and 40° C., already after 1 day), “fully converted to Form A”. For the same compound, the “form found by PXRD after slurry” value in series [2] (1 day) was “B + A”; in series [2] (5 days) it was “A + B”. Also, the TGA mass loss entry in series [3] (up to about 180° C.) is reported as “about 0.3 weight-%”.
As to `Cn1cc(-c2cc3c(N4CCN(c5ncc([C@@](C)(N)c6ccc(F)cc6)cn5)CC4)ncnn3c2)cn1` [Form Hy1], in series [1] (10-90% RH), the “mass change during the sorption cycle” value was “about 1.4 weight %”. In addition, the “solid form by powder X-ray diffraction” value in series [1] is reported as “Form Hy1”. For the same compound, the hygroscopicity result in series [1] was “only slightly hygroscopic”. For the same compound, the “form found by PXRD after stress test” value in series [4] (25° C./60% RH), in series [4] (30° C./65% RH), in series [4] (40° C./75% RH) and in series [4] (RT/97% RH) was “Hy1” in each case. In series [3] (from beginning of measurement until about 110° C.), this compound came in with a TGA mass loss of 3.5 weight-%. Moreover, in series [3] (until about 110° C.), the “water corresponding to TGA mass loss” value is given as “approximately 1 mol equivalent”.
